Results as given in US20240391871A1, “SUBSTITUTED HYDROXYMETHYL PYRROLIDINES AND MEDICAL USES THEREOF” (ATROGI AB, priority 2021, published 2024).
Structures can show the parent of a compound that is named as a salt.

How the values were obtained:
Format in all cases: cell-based
[1] = tested on: Intracellular cAMP levels; test: Measurement of intracellular cAMP levels in differentiated L6 cells; conditions: compound 1×10^−5 M, 15 min; for Emax at 10 µM: Rattus norvegicus, L6, 0.25 h, read-out: Biological example 2: intracellular cAMP levels, activity compared to that of isoproterenol
Protocol: (§1) L6-myoblasts were grown in Dulbecco's Modified Eagle's Medium (DMEM) containing 1 g/L glucose supplemented with 10% fetal bovine serum, 2 mM L-Glutamine, 50 U/mL penicillin, 50 μg/mL streptomycin and 10 mM HEPES. Cells were plated at 1×10^5 cells per mL in 24-well plates. After reaching 90% confluence the cells were grown in medium containing 2% FBS for 7 days where upon cells differentiated into myotubes.
Differentiated cells were serum-starved overnight and stimulated with an agonist, final concentration 1×10^−5 M, for 15 min in stimulation buffer (HBSS supplemented with 1% BSA, 5 mM HEPES and 1 mM IBMX, pH 7.4). The medium was aspirated and 100 μL of 95% EtOH was added to each well of the 24-well plate and cells were kept at −20° C. overnight. The EtOH was allowed to evaporate and 500 μL of lysis buffer (1% BSA, 5 mM HEPES and 0.3% Tween-20, pH 7.4) was added to each well. The plate was kept at −80° C. for 30 min and then at −20° C. until the day of detection when the samples were thawed. Intracellular cAMP levels were detected using an alpha screen cAMP kit (6760635D from Perkin Elmer). The activity for each compound is compared to that of isoproterenol.

L6-myotubes [2] = test: Glucose uptake in L6-myotubes in the presence of the β2-antagonist ICI-118,551; conditions: compound 1×10^−5 M, ICI-118,551 1×10^−5 M
Protocol: as §1
Differentiated L6-myotubes were serum-starved overnight in medium containing 0.5% fatty-acid free BSA and were incubated with the β2-adrenergic receptor antagonist ICI-118,551 at a final concentration of 1×10^−5 M for 30 min. The cells were stimulated with a compound of the invention, at a final concentration of 1×10^−5 M. After 1 h 40 min the cells were washed twice with warm, glucose free medium or PBS and additional portions of the compound of the invention and the antagonist were added. After 20 min the cells were exposed to 50 nM ^3H-2-deoxyglucose for 10 min before washed with ice cold glucose free medium or PBS three times and lysed with 0.2 M NaOH, 400 μL/well, for 1 h at 60° C. The cell lysate was mixed with 4 mL scintillation buffer (Emulsifier Safe, Perkin Elmer) and the radioactivity was detected in a β-counter (Tri-Carb 4810TR, Perkin Elmer). The activity for each compound is compared to that of isoproterenol.

L6-myotubes [3] = test: Glucose uptake (3H-2-deoxyglucose) in differentiated L6-myotubes; conditions: compound 1×10^−5 M; for Emax at 10 µM: read-out: Biological example 1: glucose uptake, activity compared to that of isoproterenol
Protocol: as §1
Differentiated L6-myotubes were serum-starved overnight in medium containing 0.5% fatty-acid free BSA and stimulated with an agonist, with a final concentration of 1×10^−5 M. After 1 h 40 min the cells were washed with warm glucose free medium or PBS twice and another portion of agonist was added to the glucose free medium. After 20 min the cells were exposed to 50 nM ^3H-2-deoxyglucose for 10 min before washed with ice cold glucose free medium or PBS three times and lysed with 0.2 M NaOH, 400 μL/well, for 1 h at 60° C. The cell lysate was mixed with 4 mL scintillation buffer (Emulsifier Safe, Perkin Elmer) and the radioactivity was detected in a β-counter (Tri-Carb 4810TR, Perkin Elmer). The activity for each compound is compared to that of isoproterenol.

Structure (SMILES) | Emax at 10 µM [1] [%] | Emax at 10 µM (L6-myotubes [3]) [%] | further results
CO[C@H]1CC[C@H](C[C@@H]2CC[C@H]([C@H](O)c3cccc(F)c3)N2)CC1.Cl [Example 1, (R)-(3-Fluorophenyl)((2R,5S)-5-(((1r,4S)-4-methoxycyclohexyl)methyl) -pyrrolidin-2-yl)methanol hydrochloride] |  |  | Biological example 2: intracellular cAMP levels, activity compared to that of isoproterenol [1]: − (less than 25%); Biological example 3: glucose uptake in the presence of the β2-antagonist ICI-118,551, activity compared to that of isoproterenol (L6-myotubes [2]): − (less than 25%); Biological example 1: glucose uptake, activity compared to that of isoproterenol (L6-myotubes [3]): +++ (more than 75% of that of isoproterenol)
CO[C@H]1CC[C@H](C[C@@H]2CC[C@H]([C@H](O)c3ccccc3F)N2)CC1.Cl [Example 5] |  |  | Biological example 3: glucose uptake in the presence of the β2-antagonist ICI-118,551, activity compared to that of isoproterenol (L6-myotubes [2]): − (less than 25%)
O[C@@H](c1cncc(F)c1)[C@H]1CC[C@H](Cc2ccc(Cl)cc2)N1 [Example 32, (S)-(2R,5R)-5-(4-Chlorobenzyl)pyrrolidin-2-yl)(5-fluoropyridin-3-yl) -methanol dihydrochloride] | < 25 | > 75 | 
CC(=O)N(Cc1ccccc1)[C@H]1CC[C@@H](C[C@@H]2CC[C@H]([C@H](O)c3cccc(F)c3)N2)CC1 [Example 33, N-Benzyl-N-((1R,4s)-4-(((25,5R)-5-((R)-(3-fluorophenyl)(hydroxy)methyl) -pyrrolidin-2-yl)methyl)cyclohexyl)acetamide hydrochloride] | < 25 | 50 to 75 | 
CC(=O)N[C@H]1CC[C@H](C[C@@H]2CC[C@H]([C@H](O)c3cccc(F)c3)N2)CC1.Cl [Example 34, N-((1S,4r)-4-(((2S,5R)-5-((R)-(3-Fluorophenyl)(hydroxy)methyl)pyrrolidin-2-yl)methyl)cyclohexyl)acetamide hydrochloride] | < 25 |  | Biological example 1: glucose uptake, activity compared to that of isoproterenol (L6-myotubes [3]; hydrochloride): +++ (more than 75% of that of isoproterenol)
CC(=O)N(Cc1ccccc1)[C@H]1CC[C@@H](C[C@@H]2CC[C@H]([C@@H](O)c3cccc(F)c3)N2)CC1 [Example 35, N-Benzyl-N-((1R,4s)-4-(((2S,5R)-5-((S)-(3-fluorophenyl)(hydroxy) -methyl)pyrrolidin-2-yl)methyl)cyclohexyl)acetamide hydrochloride] | < 25 | 25 to 50 | 
CC(=O)N[C@H]1CC[C@@H](C[C@@H]2CC[C@H]([C@@H](O)c3cccc(F)c3)N2)CC1 [Example 36, N-((1R,4s)-4-(((2S,5R)-5-((S)-(3-Fluorophenyl)(hydroxy)methyl)pyrrolidin-2-yl)methyl)cyclohexyl)acetamide] | < 25 | 50 to 75 | 
CS(=O)(=O)N(Cc1ccccc1)[C@H]1CC[C@@H](C[C@@H]2CC[C@H]([C@H](O)c3cccc(F)c3)N2)CC1 [Example 37, N-Benzyl-N-((1R,4s)-4-(((2S,5R)-5-((R)-(3-fluorophenyl)(hydroxy)methyl) -pyrrolidin-2-yl)methyl)cyclohexyl)methanesulfonamide hydrochloride] | < 25 | 50 to 75 | 
CS(=O)(=O)N[C@H]1CC[C@@H](C[C@@H]2CC[C@H]([C@H](O)c3cccc(F)c3)N2)CC1 [Example 38, N-((1R,4s)-4-(((2S,5R)-5-((R)-(3-Fluorophenyl)(hydroxy)methyl)pyrrolidin-2-yl)methyl)cyclohexyl)methanesulfonamide hydrochloride] | < 25 | > 75 | 
CS(=O)(=O)N(Cc1ccccc1)[C@H]1CC[C@@H](C[C@@H]2CC[C@H]([C@@H](O)c3cccc(F)c3)N2)CC1 [Example 39, N-Benzyl-N-((1R,4s)-4-(((2S,5R)-5-((S)-(3-fluorophenyl)(hydroxy) -methyl)pyrrolidin-2-yl)methyl)cyclohexyl)methanesulfonamide hydrochloride] | < 25 | 50 to 75 | 
CS(=O)(=O)N[C@H]1CC[C@@H](C[C@@H]2CC[C@H]([C@@H](O)c3cccc(F)c3)N2)CC1 [Example 40, N-((1R,4s)-4-(((2S,5R)-5-((S)-(3-fluorophenyl)(hydroxy)methyl)pyrrolidin-2-yl)methyl)cyclohexyl)methanesulfonamide hydrochloride] | < 25 | 50 to 75 | 
CC(=O)N(Cc1ccccc1)[C@H]1CC[C@H](C[C@@H]2CC[C@H]([C@H](O)c3cccc(F)c3)N2)CC1 [Example 41, N-Benzyl-N-((1S,4r)-4-(((2S,5R)-5-((R)-(3-fluorophenyl)(hydroxy) -methyl)pyrrolidin-2-yl)methyl)cyclohexyl)acetamide hydrochloride] | < 25 | 25 to 50 | 
CC(=O)N[C@H]1CC[C@H](C[C@@H]2CC[C@H]([C@H](O)c3cccc(F)c3)N2)CC1.Cl [Example 42, N-((1S,4r)-4-(((2S,5R)-5-((R)-(3-Fluorophenyl)(hydroxy)methyl)pyrrolidin-2-yl)methyl)cyclohexyl)acetamide hydrochloride] |  |  | Biological example 2: intracellular cAMP levels, activity compared to that of isoproterenol [1]: − (less than 25%); Biological example 1: glucose uptake, activity compared to that of isoproterenol (L6-myotubes [3]; hydrochloride): ++ (between 75 and 50%)
CC(=O)N(Cc1ccccc1)[C@H]1CC[C@H](C[C@@H]2CC[C@H]([C@@H](O)c3cccc(F)c3)N2)CC1 [Example 43, N-Benzyl-N-((1S,4r)-4-(((2S,5R)-5-((S)-(3-fluorophenyl)(hydroxy)methyl) -pyrrolidin-2-yl)methyl)cyclohexyl)acetamide hydrochloride] | < 25 | 50 to 75 | 
CC(=O)N[C@H]1CC[C@H](C[C@@H]2CC[C@H]([C@@H](O)c3cccc(F)c3)N2)CC1 [Example 44, N-((1S,4r)-4-(((2S,5R)-5-((S)-(3-Fluorophenyl)(hydroxy)methyl)pyrrolidin-2-yl)methyl)cyclohexyl)acetamide hydrochloride] | < 25 | 50 to 75 | 
CS(=O)(=O)N(Cc1ccccc1)[C@H]1CC[C@H](C[C@@H]2CC[C@H]([C@H](O)c3cccc(F)c3)N2)CC1 [Example 45, N-Benzyl-N-((1S,4r)-4-(((2S,5R)-5-((R)-(3-fluorophenyl)(hydroxy) -methyl)pyrrolidin-2-yl)methyl)cyclohexyl)methanesulfonamide hydrochloride] | < 25 | < 25 | 
CS(=O)(=O)N[C@H]1CC[C@H](C[C@@H]2CC[C@H]([C@H](O)c3cccc(F)c3)N2)CC1 [Example 46, N-((1S,4r)-4-(((2S,5R)-5-((R)-(3-Fluorophenyl)(hydroxy)methyl)pyrrolidin-2-yl)methyl)cyclohexyl)methanesulfonamide hydrochloride] | < 25 | > 75 | 
CS(=O)(=O)N(Cc1ccccc1)[C@H]1CC[C@H](C[C@@H]2CC[C@H]([C@@H](O)c3cccc(F)c3)N2)CC1 [Example 47, N-Benzyl-N-((1S,4r)-4-(((2S,5R)-5-((S)-(3-fluorophenyl)(hydroxy) -methyl)pyrrolidin-2-yl)methyl)cyclohexyl)methanesulfonamide hydrochloride] | < 25 | < 25 | 
CS(=O)(=O)N[C@H]1CC[C@H](C[C@@H]2CC[C@H]([C@@H](O)c3cccc(F)c3)N2)CC1 [Example 48, N-((1S,4r)-4-(((2S,5R)-5-((S)-(3-Fluorophenyl)(hydroxy)methyl)pyrrolidin-2-yl)methyl)cyclohexyl)methanesulfonamide hydrochloride] | < 25 | 50 to 75 | 
